Results reported in patent publication US20080021071A1, “3-{4-(Pyridin-3-Yl) Phenyl}-5-(1H-1,2,3-Triazol-1-Ylmethyl)-1,3-Oxazolidin-2-Ones as Antibacterial Agents” (ASTRAZENECA AB, priority 2004, published 2008).
In brackets after ≈: the same amount, converted by molar mass. Counter-ions that a name gives are not always drawn.

Key:
MAO-A = target: T1, MAO-A (Homo sapiens, UniProt P21397); experiment: MAO-A inhibition, standard in-vitro assay, human liver enzyme expressed in yeast; assay type: biochemical
T1 construct: made in house; host or cells: yeast
T1 sequence (P21397 1-527): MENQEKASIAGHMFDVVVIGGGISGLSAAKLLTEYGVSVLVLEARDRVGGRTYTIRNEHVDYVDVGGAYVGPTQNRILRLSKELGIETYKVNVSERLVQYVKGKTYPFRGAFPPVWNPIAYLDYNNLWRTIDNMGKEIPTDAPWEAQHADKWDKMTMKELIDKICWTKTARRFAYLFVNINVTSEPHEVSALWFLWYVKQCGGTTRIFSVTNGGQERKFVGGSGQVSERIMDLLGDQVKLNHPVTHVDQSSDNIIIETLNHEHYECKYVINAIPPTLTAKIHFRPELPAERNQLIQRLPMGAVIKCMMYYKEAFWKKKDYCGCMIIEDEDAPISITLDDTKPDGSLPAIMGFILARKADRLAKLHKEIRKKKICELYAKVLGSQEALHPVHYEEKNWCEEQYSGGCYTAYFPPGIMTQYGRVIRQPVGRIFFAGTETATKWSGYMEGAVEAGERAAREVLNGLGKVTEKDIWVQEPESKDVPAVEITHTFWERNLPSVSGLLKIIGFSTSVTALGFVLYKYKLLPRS
Experimental: The activity of the compounds of the invention against MAO-A was tested using a standard in-vitro assay based on human liver enzyme expressed in yeast as described in Biochem. Biophys. Res. Commun. 1991, 181, 1084-1088. Compounds of the invention typically give Ki values of >5 μM when measured in such an assay as above.

[1] = equilibrium solubility in pH 7.4 phosphate buffer; assay type: physicochemical; conditions: aqueous buffer, thermodynamic from solid
Excerpt: It will be understood that parameters such as solubility may be measured by any suitable technique known in the art.

[2] = test system: Staphylococcus aureus MRQR; experiment: MIC, agar-dilution, Staphylococcus aureus MRQR; assay type: cell-based; conditions: Staphylococcus aureus MRQR (methicillin resistant and quinolone resistant)
Experimental: (§1) The following results were obtained on a standard in-vitro test system. The activity is described in terms of the minimum inhibitory concentration (MIC) determined by the agar-dilution technique with an inoculum size of 10^4 CFU/spot. Typically, compounds are active in the range 0.01 to 256 μg/ml.
(§2) Staphylococci were tested on agar, using an inoculum of 10^4 CFU/spot and an incubation temperature of 37° C. for 24 hours—standard test conditions for the expression of methicillin resistance.

Streptococcus pneumoniae = experiment: MIC, Streptococcus pneumoniae; assay type: cell-based
Experimental: as §1
(§3) Streptococci and enterococci were tested on agar supplemented with 5% defibrinated horse blood, an inoculum of 10^4 CFU/spot and an incubation temperature of 37° C. in an atmosphere of 5% carbon dioxide for 48 hours—blood is required for the growth of some of the test organisms. Fastidious Gram negative organisms were tested in Mueller-Hinton broth, supplemented with hemin and NAD, grown aerobically for 24 hours at 37° C., and with an innoculum of 5×10^4 CFU/well.

Haemophilus influenzae = experiment: MIC, Haemophilus influenzae; assay type: cell-based
Experimental: as §1, §3

[3] = test system: Linezolid Resistant Streptococcus pneumoniae; experiment: MIC, Linezolid Resistant Streptococcus pneumoniae; assay type: cell-based
Experimental: as §1, §3

[4] = test system: Staphylococcus aureus MSQS; experiment: MIC, agar-dilution, Staphylococcus aureus MSQS; assay type: cell-based; conditions: Staphylococcus aureus MSQS (methicillin sensitive and quinolone sensitive)
Experimental: as §1, §2

| SMILES | melting point | Ki (MAO-A) [µM] | further results |
| --- | --- | --- | --- |
| O=C1O[C@@H](Cn2ccnn2)CN1c1ccc(-c2ccc(CO)nc2)c(F)c1 [Ref Example 3, (5R)-3-{3-Fluoro-4-[6-(hydroxymethyl)pyridin-3-yl]phenyl}-5-(1H-1,2,3-triazol-1-ylmethyl)-1,3-oxazolidin-2-one] | 177 °C | 4.8 |  |
| C[C@@H](O)c1ccc(-c2ccc(N3C[C@H](Cn4ccnn4)OC3=O)cc2F)cn1 [Example 10, (5R)-3-(3-Fluoro-4-{6-[(1R)-1-hydroxyethyl]pyridin-3-yl}phenyl)-5-(1H-1,2,3-triazol-1-ylmethyl)-1,3-oxazolidin-2-one] | 190 °C |  |  |
| CC(C)(O)c1ccc(-c2ccc(N3C[C@H](Cn4ccnn4)OC3=O)cc2F)cn1 [Example 5, (5R)-3-{3-Fluoro-4-[6-(1-hydroxy-1-methylethyl)pyridin-3-yl]phenyl}-5-(1-1,2,3-triazol-1-ylmethyl)-1,3-oxazolidin-2-one] | 180 °C |  |  |
| O=C1O[C@@H](Cn2ccnn2)CN1c1ccc(-c2ccc(C(O)CN3CCOCC3)nc2)c(F)c1 (stereo partly drawn) (as salt: hydrochloride) [Example 1, (5R)-3-{3-Fluoro-4-[6-(1-hydroxy-2-morpholin-4-ylethyl)pyridin-3-yl]phenyl}-5-(1H-1,2,3-triazol-1-ylmethyl)-1,3-oxazolidin-2-one] | > 194 °C (dec.) |  |  |
| Cc1ccc(-c2ccc(N3C[C@H](Cn4ccnn4)OC3=O)cc2F)cn1 [Ref Example 2, (5R)-3-[3-Fluoro-4-(6-methylpyridin-3-yl)phenyl]-5-(1H-1,2,3-triazol-1-ylmethyl)-1,3-oxazolidin-2-one] |  | 0.6 |  |
| O=C1O[C@@H](Cn2ccnn2)CN1c1ccc(-c2ccc(CN3CCOCC3)nc2)c(F)c1 [Example 9, (5R)-3-{3-Fluoro-4-[6-(morpholin-4-ylmethyl)pyridin-3-yl]phenyl}-5-(1H-1,2,3-triazol-1-ylmethyl)-1,3-oxazolidin-2-one] | 175 °C |  |  |
| CN(CCO)Cc1ccc(-c2ccc(N3C[C@H](Cn4ccnn4)OC3=O)cc2F)cn1 [Example 7, (5R)-3-[3-Fluoro-4-(6-{[(2-hydroxyethyl)(methyl)amino]methyl}pyridin-3-yl)phenyl]-5-(1H-1,2,3-triazol-1-ylmethyl)-1,3-oxazolidin-2-one] | 137 °C |  |  |
| CC(C)NCC(O)c1ccc(-c2ccc(N3C[C@H](Cn4ccnn4)OC3=O)cc2F)cn1 (stereo partly drawn) (as salt: hydrochloride) [Example 3, (5R)-3-(3-Fluoro-4-{6-[1-hydroxy-2-(isopropylamino)ethyl]pyridin-3-yl}phenyl)-5-(1H-1,2,3-triazol-1-ylmethyl)-1,3-oxazolidin-2-one] | > 170 °C (dec.) |  |  |
| O=C1O[C@@H](Cn2ccnn2)CN1c1ccc(-c2cccnc2)c(F)c1 [Ref Example 4, (5R)-3-(3-Fluoro-4-pyridin-3-ylphenyl)-5-(1H-1,2,3-triazol-1-ylmethyl)-1,3-oxazolidin-2-one] |  | < 0.3 |  |
| C[C@H](O)c1ccc(-c2ccc(N3C[C@H](Cn4ccnn4)OC3=O)cc2F)cn1 [Example 11, (5R)-3-(3-Fluoro-4-{6-[(1S)-1-hydroxyethyl]pyridin-3-yl}phenyl)-5-(1H-1,2,3-triazol-1-ylmethyl)-1,3-oxazolidin-2-one] | 183 °C |  |  |
| O=C1O[C@@H](Cn2ccnn2)CN1c1ccc(-c2ccc(C(O)C3CC3)nc2)c(F)c1 (stereo partly drawn) [Example 16, (5R)-3-(4-{6-[Cyclopropyl(hydroxy)methyl]pyridin-3-yl}-3-fluorophenyl)-5-(1H-1,2,3-triazol-1-ylmethyl)-1,3-oxazolidin-2-one] | 160 to 163 °C |  |  |
| N#Cc1ccc(-c2ccc(N3C[C@H](Cn4ccnn4)OC3=O)cc2F)cn1 [Ref Example 1, 5-{2-Fluoro-4-[(5R)-2-oxo-5-(1H-1,2,3-triazol-1-ylmethyl)-1,3-oxazolidin-3-yl]phenyl}pyridine-2-carbonitrile] |  | < 0.3 |  |
| CN(C)Cc1ccc(-c2ccc(N3C[C@H](Cn4ccnn4)OC3=O)cc2F)cn1 [Example 8] | 160 °C | 15 |  |
| CN(C)CC(O)c1ccc(-c2ccc(N3C[C@H](Cn4ccnn4)OC3=O)cc2F)cn1 (stereo partly drawn) (as salt: hydrochloride) [Example 2, (5R)-3-(4-{6-[2-(Dimethylamino)-1-hydroxyethyl]pyridin-3-yl}-3-fluorophenyl)-5-(1H-1,2,3-triazol-1-ylmethyl)-1,3-oxazolidin-2-one] | > 115 °C (dec.) |  |  |
| Cc1cnc(C)n1CC(O)c1ccc(-c2ccc(N3C[C@H](Cn4ccnn4)OC3=O)cc2F)cn1 (stereo partly drawn) [Example 20, (5R)-3-(4-{6-[2-(2,5-Dimethyl-1H-imidazol-1-yl)-1-hydroxyethyl]pyridin-3-yl}-3-fluorophenyl)-5-(1H-1,2,3-triazol-1-ylmethyl)-1,3-oxazolidin-2-one] | 195 to 200 °C |  |  |
| Cn1nnc(-c2ccc(-c3ccc(N4C[C@H](Cn5ccnn5)OC4=O)cc3F)cn2)n1 [Reference Example 6, (5R)-3-(3-Fluoro-4-(6-(2-methyl-2H-tetrazol-5-yl)pyrid-3-yl)phenyl)-5-(1H-1,2,3-triazol-1-ylmethyl)-1,3-oxazolidin-2-one, reference compound] |  |  | solubility thermodynamic [1]: < 7.1 µM |
| Cc1cn(C[C@H]2CN(c3ccc(-c4ccc(C#N)nc4)c(F)c3)C(=O)O2)nn1 [Ref Example 7, 5-(2Fluoro-4-{(5R)-5-[(4-methyl-1H-1,2,3-triazol-1-yl)methyl]-2-oxo-1,3-oxazolidin-3-yl}phenyl)pyridine-2-carbonitrile] | 210 to 212 °C | 3.65 |  |
| CN(Cc1ccc(-c2ccc(N3C[C@H](Cn4ccnn4)OC3=O)cc2F)cn1)CC(O)CO (stereo partly drawn) [Example 6, (5R)-3-[4-(6-{[(2,3-Dihydroxypropyl)(methyl)amino]methyl}pyridin-3-yl)-3-fluorophenyl]-5-(1-1,2,3-triazol-1-ylmethyl)-1,3-oxazolidin-2-one] | 123 °C |  |  |
| O=C1O[C@@H](Cn2ccnn2)CN1c1ccc(-c2ccc(C(O)CN3CCOCC3)nc2)c(F)c1 (stereo partly drawn) [Example 1, (5R)-3-{3-Fluoro-4-[6-(1-hydroxy-2-morpholin-4-ylethyl)pyridin-3-yl]phenyl}-5-(1H-1,2,3-triazol-1-ylmethyl)-1,3-oxazolidin-2-one] |  | 94 | MIC [2]: 1 mg/L (≈ 2.13 µM); MIC (Streptococcus pneumoniae): 0.25 mg/L (≈ 0.534 µM); MIC (Haemophilus influenzae): 4 mg/L (≈ 8.54 µM); MIC [3]: 2 mg/L (≈ 4.27 µM); MIC [4]: 1 mg/L (≈ 2.13 µM) |
| O=C(OCc1ccc(-c2ccc(N3C[C@H](Cn4ccnn4)OC3=O)cc2F)cn1)N1CCOCC1 [Example 13, (5-{2-Fluoro-4-[(5R)-2-oxo-5-(1H-1,2,3-triazol-1-ylmethyl)-1,3-oxazolidin-3-yl]phenyl}pyridin-2-yl)methyl morpholine-4-carboxylate] | 131 to 133 °C |  |  |
| CC(=O)CC(O)c1ccc(-c2ccc(N3C[C@H](Cn4ccnn4)OC3=O)cc2F)cn1 (stereo partly drawn) [Example 14, (5R)-3-{3-Fluoro-4-[6(1-hydroxy-3-oxobutyl)pyridin-3-yl]phenyl}-5-(1H-1,2,3-triazol-1-ylmethyl)-1,3-oxazolidin-2-one] | 130 to 135 °C |  |  |
| O=C1O[C@@H](Cn2ccnn2)CN1c1ccc(-c2ccc(C(O)CO)nc2)c(F)c1 (stereo partly drawn) [Example 4, (5R)-3-{4-[6-(1,2-Dihydroxyethyl)pyridin-3-yl]-3-fluorophenyl}-5-(1H-1,2,3-triazol-1-ylmethyl)-1,3-oxazolidin-2-one] | 175 °C | 48 | solubility thermodynamic [1]: 210 µM (≈ 83.9 µg/mL) |
